Test [1] deals with p53 target genes in ES2 cells. The test can be described thus: Induction of p53 target genes by qRT-PCR, ES2. The class given is cell-based, human. The note with it: for PCR ES2: score 0-6 compared to positive control, induction of p53 target genes by qRT-PCR; for expression of the p53 target genes, ES2: peptide 5ug/ml, 18 hours, ES2 versus ES2 p53KO. On the procedure: Since p53 works primarily as a transcription factor, we tested the ability of lead peptides to induce p53 target gene activation. To that end we used H1299-tsp53^V135A cells, which express temperature sensitive (ts) p53 and allow examination of WT and mutant p53 states in the same cellular background. In the representative experiment shown in Figure 3A, cells were exposed to the indicated peptides (5μg/ml) and then either transferred to 32°C or placed back at 37°C. Cells were harvested 18 hours later, and mRNA was extracted and subjected to qRT-PCR analysis. Expression levels of 3 representative p53 target genes, p21, PUMA and Mdm2, were examined. Values were normalized to non-treated cells at 37°C, and expression at 32°C, where the ts-p53 is in a WT conformation, served as positive control. […] A similar analysis was performed on ES2 ovarian cancer cells, expressing endogenous mp53^S241F, compared to ES2 p53KO cells (Figure 3B).
Figure 3 Peptides binding to p53 and their effect on the expression of p53 target genes A. - Bar graph illustrating the effect of selected peptides on activation of mutp53 by measuring transactivation of p53 target genes as determined by qRT-PCR. H1299 cells stably transfected with mutp53 (ts) A135V were used. The indicated peptides were added directly to the medium at a concentration of 5ug/ml and cells were then either moved to 32°C or returned to 37°C. 18 hours later cells were harvested, extracted for RNA, cDNA was synthesis subjected to qrt time PCR analysis. The expression level of 3 representative p53 target genes, p21, PUMA and Mdm2, were examined. The figure illustrates the relative fold induction of transcription of the cells treated with the selected peptides as compared to non-treated cells. B. - Bar graph illustrating the effect of selected peptides on activation of mutp53 by measuring transactivation of p53 target genes as determined by qRT-PCR. ES2and ES2-p53KO cells were treated with indicated peptides 5ug/ml, for 18 hours. Cells were harvested, and cDNA was subjected to qRT-PCR analysis. Expression of 4 representative p53 target genes, p21, PUMA, Mdm2 and CD95, was examined. The figure illustrates the relative fold induction of transcription in cells treated with the selected peptides compared to non-treated cells. C. - Binding of mutp53 to promoters of representative p53 target genes in live cells, assessed by chromatin immunoprecipitation. BT-549 breast cancer cells endogenously expressing mutant p53^R249S were treated for 5 hours with a mix of 3 pCAPs - 250, 242 and 325. Cells treated with a mix of inert peptides served as a negative control. DNA cross-linked p53 was immunoprecipitated, and binding to the p53 responsive elements of the PUMA, p21, CD95 and MDM2 gene promoters was quantified by qPCR. Results were normalized to input total DNA. Cell extracts immunoprecipitated with beads without antibody (beads) served as negative controls. A genomic segment containing no p53RE served as negative control (white and gray bars). D. - ELISA analysis of the binding of WTp53 and mutp53 to lead peptides. Peptides were conjugated to the bottoms of the wells of 96 well plates, employing a commercial conjugation kit (TAKARA). Control wells were coated with the αp53 monoclonal antibodies PAb1801, PAb1620 and PAb240. Recombinant WTp53 or mutp53R175H was added to the wells and incubated with the bound peptides or antibodies. Where indicated, soluble peptides were added as competitors (+ comp), to confirm the specificity of the binding to p53. pCAP-76 served as a negative control peptide. After removal of recombinant protein, plates were washed and incubated with αp53-HRP followed by TMB and optical density determination. Results are presented as relative absorbance at 450nm. […] See Materials and Methods for details.
Figure 4 Peptides trigger apoptosis in correlation to activation of WTp53 target genes A., C. - Apoptosis of ES2 cells treated with peptides. […]
In general terms: In qPCR the cycle at which signal appears reflects the starting amount.

In the next test the test system is HOP62. The test can be described thus: Crystal violet viability assay, HOP62. The class given is cell-based, human. Also on record: key: score 0- no effect-white; score 6- as or more effective than positive control- black. The note with it: score 0-6 compared to positive control, 48 h. The text has this:
We also performed a similar analysis on ES2 ovarian cancer cells, which express endogenous mp53^S241F, compared to ES2 cells in which p53 was stably knocked out using CRISPR/Cas9 (ES2 p53KO Figure S1F), to control for specificity for mutp53 (Figure 2D). In ES2 cells, too, some of the peptides caused a significant reduction in cell numbers, more prominent in the mutp53 expressing cells than in their p53KO counterparts. […] Overall, we performed this analysis on several different mutp53-expressing human cancer cell lines, and the results are summarized in Table S3. Based on this comprehensive picture, we reduced the number of most promising candidate lead peptides to 30. These peptides were then synthesized with an 8 arginine C-terminal tail for enhanced delivery across cell membranes (pCAPs 130-160); for clarity, peptides are referred to by their original number, with an R for poly arginine (see Table S3).
Cells were cultured in 96 wells plates with 2500-4000 cells/well. Serial dilutions of different peptides were added and the plates incubated for additional 48 h at 37°C. Then medium was removed and cell viability was determined by staining the cells with crystal violet (0.05%) in methanol/PBS (1:5, v/v), for 10 min, followed by 3 washes with PBS. 10% acetic acid was added to each well for 10 min. OD was determined at 595 nm.

HHPWTHHQRWS [pCAP-20]: the “PCR ES2” value in test [1] is listed as 4.

YPTQGHLR [pCAP-36]: the “Viability HOP62” value with HOP62 came to 3.

For HANLHHT [pCAP-87], in test [1], the “PCR ES2” value stood at 2. Also, the “Viability HOP62” value in the test on HOP62 came to 3.

As to “EVTFRHSVV [pCAP-1, randomly selected peptide used as inert comparison]”, the “PCR ES2” value in test [1] was determined as 3. Also, the “Viability HOP62” value with HOP62 is 3.

Turning to “IRILMFLIGCGRRRRRRRRR [pCAP-23R, pCAP-23 with poly arginine tail]”, the “Viability HOP62” value in the test on HOP62 is recorded as 3.

Turning to “SFILFIRRGRLGRRRRRRRRR [pCAP-60R, pCAP-60 with poly arginine tail]”, in test [1], the “expression of the p53 target genes, ES2” value was “significant increase”. Moreover, the “Viability HOP62” value in the test on HOP62 worked out at 2.

As for SFILFIRRGRLG [pCAP-60], the “Viability HOP62” value in the test with HOP62 came out at 3.

Turning to myr-RRIRDPRILLLHFD [pCAP-325], the “Viability HOP62” value in the test on HOP62 is given as 4.

Turning to “myr-RRKILFIRLMHNKH [pCAP-227, myristoylated peptide, similarity to GAS2]”, in test [1], the “PCR ES2” value is 5. For the same substance, in the test with HOP62, the “Viability HOP62” value is 6.

For the substance “WNHHHSTPHPAHRRRRRR [pCAP-97R, pCAP-97 with poly arginine tail]”, in test [1], the “expression of the p53 target genes, ES2” value is listed as “significant increase” and the “PCR ES2” value came out at 5. Moreover, the “Viability HOP62” value in the test with HOP62 is 4.

For the substance “LRCLLLLIGRVGRRRRRRRR [pCAP-24R, pCAP-24 with poly arginine tail]”, in test [1], the “expression of the p53 target genes, ES2” value is on record as “significant increase” and the “PCR ES2” value came to 4.

With YRRLLIGMMWRRRRRRRRR [pCAP-68], the “PCR ES2” value in test [1] is 3. Further, in the test on HOP62, the “Viability HOP62” value turned out to be 5.

With IRILMFLIGCGR [pCAP-23], in the test with HOP62, the “Viability HOP62” value was found to be 3.

On to IRGRIIR [pCAP-54], for which the “expression of the p53 target genes, ES2” value in test [1] is “significant increase”.

myr-RRLIVRILKLPNPPER [pCAP-242]: the “PCR ES2” value in test [1] was determined as 4. For the same substance, the “Viability HOP62” value with HOP62 came out at 5.

With “IRGRIIRRRRRRRRR [pCAP-54R, pCAP-54 with poly arginine tail]”, the “Viability HOP62” value with HOP62 came out at 2.

Regarding WNHHHSTPHPAH [pCAP-97], the “PCR ES2” value in test [1] came out at 5. Also, the “Viability HOP62” value in the test with HOP62 amounted to 4.

Turning to “myr-PRVLPSPHTIHPSQYP [pCAP-229, myristoylated peptide, similarity to HIPK2]”, the “PCR ES2” value in test [1] turned out to be 3. The “Viability HOP62” value in the test with HOP62 turned out to be 4.

For the substance myr-RRKHNKHRPEPDSDER [pCAP-221], the “PCR ES2” value in test [1] was found to be 4. Moreover, the “Viability HOP62” value in the test with HOP62 amounted to 5.

The values are drawn from PMC4914250, “Cancer therapeutic approach based on conformational stabilization of mutant p53 protein by small peptides” (Oncotarget, 2016).
